# Source: publication PMC12467535 (Biomedicines, 2025)
# Where two headings read alike, the source gives them in different places. No end group written: not given here.
# Legend:
# GA lesion growth = tested on: GA lesion growth; set-up: method as in PMID 37696275, PMID 37865470; settings: patients with geographic atrophy, after one year of treatment, relative to sham; range given for either agent; cited from earlier work
# [1] = rabbit, in vivo
# Description: (§2) Prior to injection, each eye was moistened with an ophthalmic Betadine solution, which was then washed out of the eyes with sterile saline. Then, 0.5% proparacaine was applied to the ocular surface prior to the injection.
# (§3) For both studies, animals were euthanized at the indicated time points. Eyes were enucleated, snap frozen in liquid nitrogen, and stored frozen until dissection for collection of vitreous, retina, and RPE/choroid for bioanalysis. […] For statistical determination, all values that were below the lower limit of quantification (LLOQ) were considered zero. Pharmacokinetic analysis was performed from the composite concentration versus time data generated for ocular tissue samples through Day 84 using Phoenix WinNonlin (version 8.5.2.4) software.
# [2] = minipig, in vivo
# Protocol: (§4) Prior to the IVT injection, a combination of 100 mg Telazol, 50 mg ketamine, and 50 mg xylazine per mL of solution was administered via intramuscular injection at 0.03–0.06 mL/kg. For two animals, dexmedetomidine (0.02 or 0.03 mg/kg) was administered as a supplementary anesthetic via intramuscular injection. Proparacaine was then administered to eye, followed by tropicamide. The area surrounding the eye was swabbed with an ophthalmic Betadine solution.
# as §3
# [3] = minipig, in vivo; remark: listed apart in the source
# Protocol: as §4, §3
# in vivo [4] = settings: Dutch-belted, rabbit
# Description: as §2, §3
# in vivo [5] = settings: Göttingen, minipig
# Protocol: as §4, §3
# [6] = human, in vivo; cited from earlier work
# [7] = tested on: retinal pigment epithelium (RPE); test: Delayed sodium iodate challenge rabbit model, RPE lesion area by fluorescein angiography; format: in vivo, Dutch-belted rabbit; settings: for protection against sodium iodate-induced lesion (lesion size): no statistically significant difference between the two doses
# Protocol: A 20 mg/mL stock solution of sodium iodate (NaIO3, Sigma Aldrich, St. Louis, MO, USA, Cat#54007) was prepared in sterile 0.9% injectable saline (Cytiva, Marlborough, MA, USA, Z1376), aliquoted into single-use vials, and stored at −20 °C until use. On the day of dosing, aliquots were thawed at room temperature and used immediately. For NaIO3 administration, rabbits were weighed and anesthetized with 2–5% isoflurane (Dechra, Norwich, United Kingdom, 17033-094-25) delivered in medical-grade oxygen at a flow rate of 1.0 to 1.5 L/min via chamber until sedated, then moved to facemask for the injection procedure. The left ear was shaved and disinfected with […] prior to intravenous injection. An indwelling catheter was inserted into the marginal ear vein and flushed with sterile 0.9% injectable saline to ensure patency. Sodium iodate was administered intravenously at a dose of 18 mg/kg body weight, followed by a 0.3 mL saline flush. […] Ten animals were used in each treatment group and 6 animals served as the naïve control group.
# Fluorescein angiography was performed following topical anesthesia of the rabbit eyes with proparacaine hydrochloride 0.5% (Akorn, 24208-730-06) and pharmacologic dilation with tropicamide (Akorn, 17478-102-12) and phenylephrine (Akorn, 17478-206-12). The rabbits were anesthetized with isoflurane and the ear was prepared as stated above. A 50 µL bolus of 10% sodium fluorescein (Akorn, 59399-001-04) was injected into the marginal ear vein and allowed to circulate for at least 2 min prior to imaging. Fundus images were captured (Spectralis, Heidelberg Engineering) to document and quantify the extent of visible choroidal and RPE degeneration in both eyes. The area of RPE depigmentation was quantified using ImageJ software (version 1.51j8). In certain cases where the damage extended well into the periphery it was not possible to image the entire edge of the affected area, and these cases were labeled “too large to grade” and were excluded from the final analysis.
# With a favorable pharmacokinetic profile, we next evaluated the durability of ONL1204 protection. […] The dose of the systemic sodium iodate had been selected based on a titration that identified a level of systemic sodium iodate that led to localized and quantifiable damage to the rabbit RPE. This damage was assessed one day after sodium iodate administration by quantifying the depigmented lesion area, defined as regions of visible choroid (“window defect”) on fluorescein angiography (Figure 3A,B).
# [8] = tested on: retinal pigment epithelium (RPE); test: Chronic CS/HFD apoB100 mouse model of dry AMD, RPE morphology on ZO-1 flatmounts; format: in vivo; settings: apoB100 mice, 6 months CS/HFD, two IVT injections 6 weeks apart; p < 0.05
# Description: For the mouse study, an equal number of male and female apolipoproteinB100 (apoB100) mice on a C57/S129 background were used. These animals carry a mutation in the editing gene apobec1, resulting in the predominant production of apoB100 in these mice, contrasting to the majority of mice that predominantly produce apoB48 [24]. For all mice strains, the rd8 mutation was bred out. Mice were fed a standard diet until they were put in the smoking chamber and then were fed a high-fat diet (HFD) consisting of 60% fat, 20% protein, and 20% carbohydrate (Research Diets, Inc., New Brunswick, NJ, USA). The study was approved by the Johns Hopkins IACUC. […]
# For retinal and RPE flatmount immunofluorescence confocal microscopy, mice were euthanized and eyes enucleated (7 eyes/treatment group) to be processed for staining for IBA1 (microglia/monocyte marker) and ZO-1 (RPE morphology). […] For retinal quadrants, microglia/monocytes/macrophages, defined by IBA1-immunolabeled cell bodies, were counted in five 20 × power fields per flatmount. For RPE/choroid quadrants, each image was used to measure the RPE cell aspect ratio and the average size per cell using ImageJ after setting a threshold as indicated by the software At least 15 cells were measured/experimental group, with n = 5 animals/group, using our previously published protocol.
# caspase-8 = test: Caspase-8 activity assay in RPE lysates of CS/HFD apoB100 mice; format: in vivo; settings: chronic CS/HFD, two IVT injections, p < 0.05
# Protocol: (§1) At 8 weeks of age, male and female mice were placed in a smoking chamber for 5 h/day, 5 days/week for 6 months following our published protocol.
# After the retina and RPE/choroid were harvested, protein was extracted using RIPA Buffer (Sigma-Aldrich, St Louis, MO, USA) with Proteinase inhibitor and phosphatase inhibitor. Nine eyes per treatment group were used in this assay, and each sample included 75 μg of protein to standardize the amount of tissue with the Luminescent Caspase-Glow 8 assay kit (Promega, Madison, WI, USA) used according to manufacturer’s protocol. […]
# [9] = tested on: IBA1+ inflammatory cells in the retina; test: IBA1+ cell count in retinal flatmounts of CS/HFD apoB100 mice; format: in vivo; settings: chronic CS/HFD, two IVT injections, p < 0.000001
# Protocol: as §1
# For retinal and RPE flatmount immunofluorescence confocal microscopy, mice were euthanized and eyes enucleated (7 eyes/treatment group) to be processed for staining for IBA1 (microglia/monocyte marker) and ZO-1 (RPE morphology). The anterior segments were removed, and the retina was carefully separated from the RPE/choroid complex. Tissues were fixed in 2% paraformaldehyde in Tris-buffered saline (TBS) at 4 °C overnight. Retina flatmounts were processed with TBS/1% bovine serum albumin (BSA) and 5% donkey serum overnight at 4 °C. The flatmounts were then incubated with goat polyclonal anti-AIF-1/IBA1 antibody (1:50; Novus biologicals, Centennial, CO, USA) for 48 h at 4 °C, washed, and incubated with donkey anti-goat Cy3 secondary antibody (Abcam, Cambridge, MA, USA) overnight at 4 °C [27]. […] For retinal quadrants, microglia/monocytes/macrophages, defined by IBA1-immunolabeled cell bodies, were counted in five 20 × power fields per flatmount. For RPE/choroid quadrants, each image was used to measure the RPE cell aspect ratio and the average size per cell using ImageJ after setting a threshold as indicated by the software At least 15 cells were measured/experimental group, with n = 5 animals/group, using our previously published protocol.
# [10] = 10 ug/eye, Average concentration of ONL1204 in RPE/choroid
# [11] = 10 ug/eye, Average concentration of ONL1204 in retina
# [12] = 50 ug/eye, Average concentration of ONL1204 in RPE/choroid
# [13] = 50 ug/eye, Average concentration of ONL1204 in retina
# [14] = 100 ug/eye, Average concentration of ONL1204 in RPE/choroid
# [15] = 100 ug/eye, Average concentration of ONL1204 in retina
# [16] = 200 ug/eye, Average concentration of ONL1204 in RPE/choroid
# [17] = 200 ug/eye, Average concentration of ONL1204 in retina
# [18] = 300 ug/eye, Average concentration of ONL1204 in RPE/choroid
# [19] = 300 ug/eye, Average concentration of ONL1204 in retina
substance,measurement,setting,value
pegcetacoplan,reduction of the rate of GA lesion growth,GA lesion growth,14–26%
avacincaptad pegol,reduction of the rate of GA lesion growth,GA lesion growth,14–26%
HHIYLGAVNYIY-NH2 [ONL1204],half-life,"[1]; 10 ug, calculated vitreous half-life",147 days
same,half-life,"[1]; 50 ug, calculated vitreous half-life",116 days
same,half-life,"[1]; 100 ug, calculated vitreous half-life",124 days
same,half-life,[1]; vitreous humor half-life,> 100 days
same,half-life,[2]; half-life calculated from the vitreous humor data,112 days
same,half-life,[2]; vitreous humor half-life,> 100 days
same,half-life calculated from the vitreous humor data,[3],117.18 days
same,stability in plasma,,rapidly broken down by peptidases
same,tissue level at time at 24 h,in vivo [4]; [10],5.45 ng/g
same,tissue level at time at 672 h,in vivo [4]; [10],10.5 ng/g
same,tissue level at time at 1344 h,in vivo [4]; [10],144 ng/g
same,tissue level at time at 1992 h,in vivo [4]; [10],213 ± 207 ng/g
same,tissue level at time at 24 h,in vivo [4]; [11],11.2 ± 8.4 ng/g
same,tissue level at time at 672 h,in vivo [4]; [11],51 ± 97.9 ng/g
same,tissue level at time at 1344 h,in vivo [4]; [11],14.3 ± 15.1 ng/g
same,tissue level at time at 24 h,in vivo [4]; [12],58 ± 79.8 ng/g
same,tissue level at time at 672 h,in vivo [4]; [12],92.4 ng/g
same,tissue level at time at 1344 h,in vivo [4]; [12],61.8 ng/g
same,tissue level at time at 1992 h,in vivo [4]; [12],209 ± 251 ng/g
same,tissue level at time at 24 h,in vivo [4]; [13],75.6 ± 144 ng/g
same,tissue level at time at 672 h,in vivo [4]; [13],27 ± 36.6 ng/g
same,tissue level at time at 1344 h,in vivo [4]; [13],37.8 ± 48.4 ng/g
same,tissue level at time at 1992 h,in vivo [4]; [13],201 ± 268 ng/g
same,tissue level at time at 24 h,in vivo [4]; [14],174 ± 149 ng/g
same,tissue level at time at 672 h,in vivo [4]; [14],40.6 ng/g
same,tissue level at time at 1344 h,in vivo [4]; [14],36.2 ± 41 ng/g
same,tissue level at time at 24 h,in vivo [4]; [15],183 ± 346 ng/g
same,tissue level at time at 672 h,in vivo [4]; [15],42.3 ± 72.1 ng/g
same,tissue level at time at 1344 h,in vivo [4]; [15],22.7 ± 27.9 ng/g
same,tissue level at time at 1992 h,in vivo [4]; [15],86.1 ± 103 ng/g
same,tissue level at time at 144 h,in vivo [5]; [16],189 ± 160 ng/g
same,tissue level at time at 672 h,in vivo [5]; [16],66.5 ± 87.8 ng/g
same,tissue level at time at 2112 h,in vivo [5]; [16],38.2 ± 21.7 ng/g
same,tissue level at time at 144 h,in vivo [5]; [17],17.8 ± 27.3 ng/g
same,tissue level at time at 672 h,in vivo [5]; [17],2.05 ng/g
same,tissue level at time at 144 h,in vivo [5]; [18],101 ± 91.4 ng/g
same,tissue level at time at 672 h,in vivo [5]; [18],82.4 ± 34.5 ng/g
same,tissue level at time at 2112 h,in vivo [5]; [18],29.8 ng/g
same,tissue level at time at 144 h,in vivo [5]; [19],7.2 ± 6.37 ng/g
same,tissue level at time at 672 h,in vivo [5]; [19],23.8 ± 16.4 ng/g
same,safety in Phase 1 clinical trial,[6],safe
HHIYLGAVNYIY-NH2 (C-terminus assumed) [ONL1204],protection against sodium iodate-induced lesion (lesion size),"[7]; single IVT 25 µg on Day 0, sodium iodate 18 mg/kg i.v. on Day 4",comparable levels of protection
same,protection against sodium iodate-induced lesion (lesion size),"[7]; single IVT 100 µg on Day 0, sodium iodate 18 mg/kg i.v. on Day 4",comparable levels of protection
same,lesion area vs vehicle-treated controls and 25 µg group,"[7]; single IVT 100 µg on Day 0, sodium iodate on Day 14",significantly smaller lesion areas
same,lesion area vs vehicle-treated controls and 25 µg group,"[7]; single IVT 100 µg on Day 0, sodium iodate on Day 28",significantly smaller lesion areas
same,posterior RPE cell area vs vehicle,[8],significantly lower than the control
same,Caspase-8 activity in whole RPE lysates vs vehicle,caspase-8,significantly reduced
same,IBA1+ inflammatory cell infiltration in the retina vs vehicle,[9],decreased
